Measured values: US20180355359A1, “METHODS FOR DETERMINING RESISTANCE TO ANTICANCER THERAPY AND COMPOSITION USED THEREFOR” (SD GENOMICS CO., LTD., priority 2015, published 2018)

Key:
K562 = assay: Survival rate (CCK-8 assay) of CML cell line K562; format: cell-based; settings: imatinib 0.6 μM
Description: (§1) CML cell lines (K562 and CML-T1 cell line) and a normal lymphoblastoid cell line (LCL) were inoculated into a 96-well plate in which DMEM medium containing 10% FBS, 100 units/mL penicillin, and […] streptomycin at a concentration of 3×10^3 cells/well and cultured under the conditions of 37° C. and 5% CO2.
(§2) In particular, the siRNAs used had the nucleotide sequences of SEQ ID NOS: 5 and 176 to 178.

CML-T1 cell line = assay: Survival rate (CCK-8 assay) of CML cell line CML-T1; format: cell-based; settings: imatinib 0.6 μM
Description: as §1, §2

[1] = tested on: K562 cell line which induced the T315I mutation; assay: Survival rate (CCK-8 assay) of cell line with induced T315I somatic mutation; format: cell-based
Description: A cell line in which a somatic mutation of T315I was induced was prepared using the Clontech Guide-it CRISPR/Cas9 System and inoculated into a 96-well plate in which DMEM medium containing 10% FBS, 100 units/mL penicillin, and 100 μg/mL streptomycin at a concentration of 3×10^3 cells/well and cultured under the conditions of 37° C. and 5% CO2.

[2] = tested on: normal lymphoblastoid cell line (LCL); assay: Survival rate (CCK-8 assay) of normal lymphoblastoid cell line; format: cell-based
Description: as §1, §2

phospho CrkL/CrkL ratio = assay: Phospho-CRKL analysis (Phospho-CrkL (Tyr207) colorimetric cell-based ELISA) in K562
Description: A ratio of phosphorylated CRKL and CRKL (phospho CrkL/CrkL ratio) of the treated cell line was calculated using the Phospho-CrkL (Tyr207) Colorimetric Cell-Based enzyme linked immunosorbent assay (ELISA) kit and the results were compared (FIG. 10).

K562 cells = assay: Cell cycle analysis (PI staining, FACS) in K562 cells; format: cell-based; settings: vs negative control siRNA
Description: (§3) CML cell lines (K562 cells and LAMA-84 cells) were treated with the two kinds of siRNAs having the nucleotide sequences of SEQ ID NOS: 5 and 176 to 178 (negative control siRNA or IS3 siRNA) and the cells were immobilized. These cells were subjected to PI staining and applied to FACSVerse (BD Biosciences, Franklin Lakes, N.J., U.S.A.) so as to measure the percentage of the cells located in the G0/G1 phase (FIGS. 11A and 11B).

LAMA-84 cells = assay: Cell cycle analysis (PI staining, FACS) in LAMA-84 cells; format: cell-based; settings: vs negative control siRNA
Description: as §3

[3] = tested on: cancer cell lines of hematopoietic tissue or lymphatic tissue (LAMA84, KG-1, HL-60, NB-4, MOLM13, CCRF-CEM, U-937); assay: Survival rate (CCK-8 assay) of cancer cell lines of hematopoietic or lymphatic tissue; format: cell-based; settings: 100 pmol siRNA per 200,000 cells, up to 72 hours; vs siCTRL; all 7 hematopoietic/lymphatic lines
Text: (§4) Specifically, the cancer cell lines of hematopoietic tissue or lymphatic tissue (e.g., LAMA84 (chronic myeloid leukemia in blast crisis), KG-1 (acute myeloid leukemia, FAB M2), HL-60 (acute myeloid leukemia, FAB M2), NB-4 (acute promyelocytic leukemia), MOLM13 (acute myeloid leukemia, FAB M5B), CCRF-CEM (T acute lymphoblastic leukemia), and U-937 (histiocytic lymphoma)); solid cancer cell lines (e.g., IMR-32 (neuroblastoma, KCLB, 10127), SNU-478 (ampulla of vater adenocarcinoma), MG-63 (osteosarcoma), Hs578T (breast invasive ductal carcinoma, KCLB, 30126), U-87MG (glioblastoma), SNU-886 (hepatocellular carcinoma), MIA-PaCa-2 (pancreatic ductal adenocarcinoma), SK-MEL-2 (malignant melanoma), RD (embryonal rhabdomyosarcoma), Hs 746T (gastric adenocarcinoma), and J-82 (bladder carcinoma)) were dispensed into a 96-well plate at a concentration of 3,000 to 5,000 cell lines/well and incubated in a wet incubator (37° C. and 5% CO2) having an environment similar to that of the human body and cultured for 3 days.
(§5) Each of the cultured cells was treated with the two kinds of siRNAs having the nucleotide sequences of SEQ ID NOS: 5 and 176 to 178 (negative control siRNA (siCTRL) or IS3 siRNA) at a concentration of 100 pmol based on 200,000 cells, cultured for up to 72 hours, and the survival rates of these cells were compared by the CCK-8 assay (FIGS. 12A to 12C).

[4] = tested on: solid cancer cell lines (IMR-32, SNU-478, MG-63, Hs578T, U-87MG, SNU-886, MIA-PaCa-2, SK-MEL-2, RD, Hs 746T, J-82); assay: Survival rate (CCK-8 assay) of solid cancer cell lines; format: cell-based; settings: 100 pmol siRNA per 200,000 cells, up to 72 hours; vs siCTRL; all 11 solid cancer lines
Text: as §4, §5

| Compound | survival rate of the cell line (K562) | survival rate of the cell line (CML-T1 cell line) | survival rate of the cell line ([1]; siRNA in combination with first generation anticancer agent (imatinib 10 nM)) | survival rate of the cell line ([1]; siRNA in combination with second generation anticancer agent (nilotinib or dasatinib 10 nM)) | survival rate of the cell line ([1]; siRNA used alone) | survival rate of the cell line [2] | phospho CrkL/CrkL ratio (phospho CrkL/CrkL ratio; HMGCLL1 IS3 siRNA and imatinib in combination) | phospho CrkL/CrkL ratio (phospho CrkL/CrkL ratio; treated individually) | percentage of the cells located in the G0/G1 phase (K562 cells) | percentage of the cells located in the G0/G1 phase (LAMA-84 cells) | survival rate of each cell line [3] | survival rate of each cell line [4] |
| --- | --- | --- | --- | --- | --- | --- | --- | --- | --- | --- | --- | --- |
| Cc1ccc(NC(=O)c2ccc(CN3CCN(C)CC3)cc2)cc1Nc1nccc(-c2cccnc2)n1 [imatinib, reference compound] | reduced | reduced |  |  |  |  |  |  |  |  |  |  |
| HMGCLL1 IS3 siRNA: siRNA to HMGCLL1 isoform 3: sense GGUACCACAGGUUGCUGCU (SEQ ID NO: 178), antisense AGCAGCAACCUGUGGUACC (SEQ ID NO: 5) (listed as RNA, chemistry not given here) | reduced | reduced | further significantly reduced | further significantly reduced | reduced | not affected | reduced to the lowest level | reduced to similar levels | increased | increased | significantly reduced | significantly reduced |
